Results taken from patent publication US10758534B2 (Vertex Pharmaceuticals Incorporated, priority 2014, dated 2020).

What follows are compounds tested against T1, F508del (Homo sapiens, UniProt P13569, DEL508-508) (assay: Protocol 2: FRET membrane potential optical assay (VIPR), identification of correction compounds). Settings: F508del CFTR modulator activity; compounds of Table 1; read-out: EC30.
T1 construct: expressed in transfected cells
Type: cell-based
Outline: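 NIH3T3 mouse fibroblasts stably expressing F508del were treated with test compound for 16 hrs at 37° C. in serum-free medium; 27° C. incubation served as positive control. F508del was activated with 10 μM forskolin plus 20 μM genistein in Cl^−-free medium, and Cl^− efflux-driven depolarization was read by DiSBAC2(3)/CC2-DMPE FRET.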

T1 sequence (P13569 with tags, fused parts or gaps DEL508-508): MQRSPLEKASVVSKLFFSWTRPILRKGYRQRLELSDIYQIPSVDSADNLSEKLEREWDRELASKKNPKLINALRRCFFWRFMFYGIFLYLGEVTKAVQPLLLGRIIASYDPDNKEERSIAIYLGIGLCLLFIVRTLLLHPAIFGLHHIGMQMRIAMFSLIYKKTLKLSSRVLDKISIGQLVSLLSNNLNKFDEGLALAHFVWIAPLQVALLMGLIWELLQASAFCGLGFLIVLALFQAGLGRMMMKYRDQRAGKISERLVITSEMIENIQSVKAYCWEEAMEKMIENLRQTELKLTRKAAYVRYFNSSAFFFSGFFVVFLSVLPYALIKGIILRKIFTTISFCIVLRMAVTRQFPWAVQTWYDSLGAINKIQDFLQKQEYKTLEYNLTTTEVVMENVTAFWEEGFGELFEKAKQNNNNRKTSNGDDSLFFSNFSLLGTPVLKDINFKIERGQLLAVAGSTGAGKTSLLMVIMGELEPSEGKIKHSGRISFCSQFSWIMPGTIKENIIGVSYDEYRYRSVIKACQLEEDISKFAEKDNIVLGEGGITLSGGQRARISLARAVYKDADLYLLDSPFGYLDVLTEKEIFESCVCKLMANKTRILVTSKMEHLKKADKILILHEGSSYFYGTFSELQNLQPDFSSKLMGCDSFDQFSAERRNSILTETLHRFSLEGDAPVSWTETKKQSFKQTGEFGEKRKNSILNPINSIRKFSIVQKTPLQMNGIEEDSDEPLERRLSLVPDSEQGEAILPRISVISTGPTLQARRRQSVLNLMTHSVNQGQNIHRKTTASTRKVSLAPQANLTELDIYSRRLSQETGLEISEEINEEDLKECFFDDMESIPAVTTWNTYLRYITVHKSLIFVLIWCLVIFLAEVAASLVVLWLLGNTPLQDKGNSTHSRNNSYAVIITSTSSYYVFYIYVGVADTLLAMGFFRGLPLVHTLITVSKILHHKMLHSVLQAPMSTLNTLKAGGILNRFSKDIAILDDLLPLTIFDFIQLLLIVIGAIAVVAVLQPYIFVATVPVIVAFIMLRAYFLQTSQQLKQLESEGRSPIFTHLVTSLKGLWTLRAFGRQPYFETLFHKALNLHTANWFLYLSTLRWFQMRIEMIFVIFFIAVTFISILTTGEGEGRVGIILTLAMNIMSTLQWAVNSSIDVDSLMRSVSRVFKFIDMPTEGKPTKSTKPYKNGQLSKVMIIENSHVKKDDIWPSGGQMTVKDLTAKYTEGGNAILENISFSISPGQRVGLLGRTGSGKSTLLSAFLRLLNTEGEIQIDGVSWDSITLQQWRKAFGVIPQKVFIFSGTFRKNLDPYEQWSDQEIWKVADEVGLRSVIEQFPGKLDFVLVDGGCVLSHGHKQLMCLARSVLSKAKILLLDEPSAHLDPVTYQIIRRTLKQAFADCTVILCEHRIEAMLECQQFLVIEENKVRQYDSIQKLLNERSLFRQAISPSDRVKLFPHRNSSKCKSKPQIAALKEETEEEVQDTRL

| SMILES | EC30 |
| --- | --- |
| C[C@@H]1CN(c2nc(-c3ccc4ccccc4c3)ccc2C(=O)NS(=O)(=O)c2cccnc2N)C(C)(C)C1 [Compound 2280, N-[(2-amino-3-pyridyl)sulfonyl]-6-(2-naphthyl)-2-[(4S)-2,2,4-trimethylpyrrolidin-1-yl]pyridine-3-carboxamide] | < 3000 nM |
| COc1ccccc1CNc1cccc(S(=O)(=O)NC(=O)c2cccnc2N2CC(C)CC2(C)C)n1 (stereo not drawn) [Compound 2310, N—[[6-[(2-methoxyphenyl)methylamino]-2-pyridyl]sulfonyl]-2-(2,2,4-trimethylpyrrolidin-1-yl)pyridine-3-carboxamide] | < 3000 nM |
| Cc1cc(O)ccc1-c1ccc(C(=O)NS(=O)(=O)c2cccnc2N)c(N2C[C@@H](C)CC2(C)C)n1 [Compound 1999, N-[(2-amino-3-pyridyl)sulfonyl]-6-(4-hydroxy-2-methyl-phenyl)-2-[(4S)-2,2,4-trimethylpyrrolidin-1-yl]pyridine-3-carboxamide] | 3000 to 10000 nM |
| C[C@@H]1CN(c2nc(-c3ccccc3O)ccc2C(=O)NS(=O)(=O)c2cccc(N)n2)C(C)(C)C1 [Compound 2555, N-[(6-amino-2-pyridyl)sulfonyl]-6-(2-hydroxyphenyl)-2-[(4S)-2,2,4-trimethylpyrrolidin-1-yl]pyridine-3-carboxamide] | < 3000 nM |
| CC1CN(c2ncccc2C(=O)NS(=O)(=O)c2cccc(Oc3ccccc3)n2)C(C)(C)C1 (stereo not drawn) [Compound 2509, N-[(6-phenoxy-2-pyridyl)sulfonyl]-2-(2,2,4-trimethylpyrrolidin-1-yl)pyridine-3-carboxamide] | < 3000 nM |
| Cc1c(F)cccc1-c1ccc(C(=O)NS(=O)(=O)N2CC[C@H](N)C2)c(N2C[C@@H](C)CC2(C)C)n1 [Compound 2199, N-[(3S)-3-aminopyrrolidin-1-yl]sulfonyl-6-(3-fluoro-2-methyl-phenyl)-2-[(4S)-2,2,4-trimethylpyrrolidin-1-yl]pyridine-3-carboxamide] | 3000 to 10000 nM |
| CC(C)Oc1cnn(-c2ccc(C(=O)NS(=O)(=O)c3cccc(N)n3)c(N3C[C@@H](C)CC3(C)C)n2)c1 [Compound 2658, N-[(6-amino-2-pyridyl)sulfonyl]-6-(4-isopropoxypyrazol-1-yl)-2-[(4S)-2,2,4-trimethylpyrrolidin-1-yl]pyridine-3-carboxamide] | 3000 to 10000 nM |
| COc1ccccc1-c1ccc(C(=O)NS(=O)(=O)N2CC[C@H](N)C2)c(N2C[C@@H](C)CC2(C)C)n1 [Compound 2666, N-[(3S)-3-aminopyrrolidin-1-yl]sulfonyl-6-(2-methoxyphenyl)-2-[(4S)-2,2,4-trimethylpyrrolidin-1-yl]pyridine-3-carboxamide] | 3000 to 10000 nM |
| CC1CN(c2ncccc2C(=O)NS(=O)(=O)c2cccc(NCCOc3ccccc3)n2)C(C)(C)C1 (stereo not drawn) [Compound 2206, N—[[6-(2-phenoxyethylamino)-2-pyridyl]sulfonyl]-2-(2,2,4-trimethylpyrrolidin-1-yl)pyridine-3-carboxamide] | < 3000 nM |
| Cc1ccc(-c2nc(-c3cc(F)cc(OCC(C)C)c3)ccc2C(=O)NS(=O)(=O)N2CC[C@@H](N)C2)cc1 [Compound 2276, N-[(3R)-3-aminopyrrolidin-1-yl]sulfonyl-6-(3-fluoro-5-isobutoxy-phenyl)-2-(p-tolyl)pyridine-3-carboxamide] | < 3000 nM |
| CC1CN(c2ncccc2C(=O)NS(=O)(=O)c2cccc(Nc3c(F)cc(F)cc3F)n2)C(C)(C)C1 (stereo not drawn) [Compound 2106, N—[[6-(2,4,6-trifluoroanilino)-2-pyridyl]sulfonyl]-2-(2,2,4-trimethylpyrrolidin-1-yl)pyridine-3-carboxamide] | < 3000 nM |
| CC1CN(c2ncccc2C(=O)NS(=O)(=O)c2cccc(NCc3cccc(Cl)c3)n2)C(C)(C)C1 (stereo not drawn) [Compound 2064, N—[[6-[(3-chlorophenyl)methylamino]-2-pyridyl]sulfonyl]-2-(2,2,4-trimethylpyrrolidin-1-yl)pyridine-3-carboxamide] | < 3000 nM |
| CC1CN(c2ncc(-c3ccc(OC(F)(F)F)cc3)cc2C(=O)NS(=O)(=O)c2cccc(N)n2)C(C)(C)C1 (stereo not drawn) [Compound 2649, N-[(6-amino-2-pyridyl)sulfonyl]-5-[4-(trifluoromethoxy)phenyl]-2-(2,2,4-trimethylpyrrolidin-1-yl)pyridine-3-carboxamide] | < 3000 nM |
| C[C@@H]1CN(c2nc(-c3cccc(OC(F)(F)F)c3)ccc2C(=O)NS(=O)(=O)N2CC[C@H](N)C2)C(C)(C)C1 [Compound 2029, N-[(3S)-3-aminopyrrolidin-1-yl]sulfonyl-6-[3-(trifluoromethoxy)phenyl]-2-[(4S)-2,2,4-trimethylpyrrolidin-1-yl]pyridine-3-carboxamide] | < 3000 nM |
| CCOc1ncc(-c2ccc(C(=O)NS(=O)(=O)c3cccnc3N)c(N3C[C@@H](C)CC3(C)C)n2)cc1C [Compound 2651, N-[(2-amino-3-pyridyl)sulfonyl]-6-(6-ethoxy-5-methyl-3-pyridyl)-2-[(4S)-2,2,4-trimethylpyrrolidin-1-yl]pyridine-3-carboxamide] | < 3000 nM |

Same assay, conditions: Table 3; compounds of Table 1 as modulators of CFTR activity; protocol not stated

| SMILES | EC30 |
| --- | --- |
| CC(C)COc1cc(F)cc(-c2ccc(C(=O)NS(=O)(=O)c3ccn[nH]3)c(N3CCCC(C)C3)n2)c1 (stereo not drawn) [Compound 756, 6-(3-fluoro-5-isobutoxy-phenyl)-2-(3-methyl-1-piperidyl)-N-(1H-pyrazol-5-ylsulfonyl)pyridine-3-carboxamide] | +++ (“+++” means <3 uM) |
| Cc1cc(C)c(Cn2c(C(=O)NS(=O)(=O)c3cccc(N)c3)cc3ccc(F)cc32)c(C)c1 [Compound 142, N-(3-aminophenyl)sulfonyl-6-fluoro-1-[(2,4,6-trimethylphenyl)methyl]indole-2-carboxamide] | +++ (“+++” means <3 uM) |
| COc1cccc(S(=O)(=O)NC(=O)c2cc3ccccc3n2Cc2c(C)cc(C)cc2C)n1 [Compound 253, N-[(6-methoxy-2-pyridyl)sulfonyl]-1-[(2,4,6-trimethylphenyl)methyl]indole-2-carboxamide] | +++ (“+++” means <3 uM) |
| Cc1cc(C)c(Oc2nc(-c3cc(F)ccc3F)ccc2C(=O)NS(=O)(=O)c2ccc[nH]c2=O)c(C)c1 [Compound 545, 6-(2,5-difluorophenyl)-N-[(2-oxo-1H-pyridin-3-yl)sulfonyl]-2-(2,4,6-trimethylphenoxy)pyridine-3-carboxamide] | ++ (“++” means between 3 uM and 10 uM) |
| Cc1ccc(-c2nc(C(C)(C)C)ccc2C(=O)NS(=O)(=O)c2cccc(N)c2)cc1F [Compound 349, N-(3-aminophenyl)sulfonyl-6-tert-butyl-2-(3-fluoro-4-methyl-phenyl)pyridine-3-carboxamide] | ++ (“++” means between 3 uM and 10 uM) |
| Cc1ccc(-c2nc(C(C)(C)C)ccc2C(=O)NS(=O)(=O)c2ccn[nH]2)cc1 [Compound 632, 6-tert-butyl-2-(p-tolyl)-N-(1H-pyrazol-5-ylsulfonyl)pyridine-3-carboxamide] | ++ (“++” means between 3 uM and 10 uM) |
| Cc1cc(C)c(Oc2nc(-c3ccc(Cl)c(OCC(C)C)c3)ccc2C(=O)NS(=O)(=O)c2cccc(N)n2)c(C)c1 [Compound 238, N-[(6-amino-2-pyridyl)sulfonyl]-6-(4-chloro-3-isobutoxy-phenyl)-2-(2,4,6-trimethylphenoxy)pyridine-3-carboxamide] | +++ (“+++” means <3 uM) |
| CC(C)COc1cc(F)cc(-c2ccc(C(=O)NS(=O)(=O)c3cccc(N)n3)c(N(C)C3CCC3)n2)c1 [Compound 683, N-[(6-amino-2-pyridyl)sulfonyl]-2-[cyclobutyl(methyl)amino]-6-(3-fluoro-5-isobutoxy-phenyl)pyridine-3-carboxamide] | +++ (“+++” means <3 uM) |
| CC(C)c1ccc(-c2ccc(C(=O)NS(=O)(=O)c3cccc(N)n3)c(N3C[C@@H](C)CC3(C)C)n2)cc1 [Compound 630, N-[(6-amino-2-pyridyl)sulfonyl]-6-(4-isopropylphenyl)-2-[(4S)-2,2,4-trimethylpyrrolidin-1-yl]pyridine-3-carboxamide] | +++ (“+++” means <3 uM) |
| CC(C)(C)c1ccc(C(=O)NS(=O)(=O)c2cccc(N)n2)c(C2CCCCC2)n1 [Compound 411, N-[(6-amino-2-pyridyl)sulfonyl]-6-tert-butyl-2-cyclohexyl-pyridine-3-carboxamide] | +++ (“+++” means <3 uM) |
| CC(C)Oc1ccc(-c2ccc(C(=O)NS(=O)(=O)c3cccc(N)n3)c(N3CCCC3c3ccccc3)n2)cn1 (stereo not drawn) [Compound 509, N-[(6-amino-2-pyridyl)sulfonyl]-6-(6-isopropoxy-3-pyridyl)-2-(2-phenylpyrrolidin-1-yl)pyridine-3-carboxamide] | +++ (“+++” means <3 uM) |
| COC1(C)CCN(c2nc(-c3cc(F)cc(OCC(C)C)c3)ccc2C(=O)NS(=O)(=O)c2ccn[nH]2)CC1 [Compound 774, 6-(3-fluoro-5-isobutoxy-phenyl)-2-(4-methoxy-4-methyl-1-piperidyl)-N-(1H-pyrazol-5-ylsulfonyl)pyridine-3-carboxamide] | +++ (“+++” means <3 uM) |
| Cc1cc(C)c(Cn2nc(C(C)(C)C)nc2C(=O)NS(=O)(=O)c2cccc(N)c2)c(C)c1 [Compound 261, N-(3-aminophenyl)sulfonyl-5-tert-butyl-2-[(2,4,6-trimethylphenyl)methyl]-1,2,4-triazole-3-carboxamide] | +++ (“+++” means <3 uM) |
| CC(C)COc1cc(F)cc(-c2ccc(C(=O)NS(=O)(=O)c3ccccc3)c(N3CCC(C)(C)CC3)n2)c1 [Compound 583, N-(benzenesulfonyl)-2-(4,4-dimethyl-1-piperidyl)-6-(3-fluoro-5-isobutoxy-phenyl)pyridine-3-carboxamide] | +++ (“+++” means <3 uM) |
| Cc1cc(C)c(Oc2nc(-c3cnn(CC(C)C)c3)ccc2C(=O)NS(=O)(=O)c2cc[nH]n2)c(C)c1 [Compound 577, 6-(1-isobutylpyrazol-4-yl)-N-(1H-pyrazol-3-ylsulfonyl)-2-(2,4,6-trimethylphenoxy)pyridine-3-carboxamide] | ++ (“++” means between 3 uM and 10 uM) |
